Measurements from PMC5933747 (PLoS ONE, 2018).
Values joined by “and” are separate entries in the source; they are usually repeats but may differ in a detail not shown here. Equal entries are not always repeated.

Key:
[1] = target: human NaV1.5 (Homo sapiens, UniProt Q14524); assay: PatchXpress (PX) automated electrophysiology, human NaV1.5; type: cell-based; details: human; PX platform; at least ten cells, two to three data points per concentration
[2] = target: T1, human NaV1.7 (Homo sapiens, UniProt Q15858); assay: PatchXpress (PX) automated electrophysiology, human NaV1.7 in HEK293 cells; type: cell-based; details: PX platform, voltage protocol with 20% of channels inactivated, at least ten cells, two to three data points per concentration
T1 sequence (Q15858 whole entry): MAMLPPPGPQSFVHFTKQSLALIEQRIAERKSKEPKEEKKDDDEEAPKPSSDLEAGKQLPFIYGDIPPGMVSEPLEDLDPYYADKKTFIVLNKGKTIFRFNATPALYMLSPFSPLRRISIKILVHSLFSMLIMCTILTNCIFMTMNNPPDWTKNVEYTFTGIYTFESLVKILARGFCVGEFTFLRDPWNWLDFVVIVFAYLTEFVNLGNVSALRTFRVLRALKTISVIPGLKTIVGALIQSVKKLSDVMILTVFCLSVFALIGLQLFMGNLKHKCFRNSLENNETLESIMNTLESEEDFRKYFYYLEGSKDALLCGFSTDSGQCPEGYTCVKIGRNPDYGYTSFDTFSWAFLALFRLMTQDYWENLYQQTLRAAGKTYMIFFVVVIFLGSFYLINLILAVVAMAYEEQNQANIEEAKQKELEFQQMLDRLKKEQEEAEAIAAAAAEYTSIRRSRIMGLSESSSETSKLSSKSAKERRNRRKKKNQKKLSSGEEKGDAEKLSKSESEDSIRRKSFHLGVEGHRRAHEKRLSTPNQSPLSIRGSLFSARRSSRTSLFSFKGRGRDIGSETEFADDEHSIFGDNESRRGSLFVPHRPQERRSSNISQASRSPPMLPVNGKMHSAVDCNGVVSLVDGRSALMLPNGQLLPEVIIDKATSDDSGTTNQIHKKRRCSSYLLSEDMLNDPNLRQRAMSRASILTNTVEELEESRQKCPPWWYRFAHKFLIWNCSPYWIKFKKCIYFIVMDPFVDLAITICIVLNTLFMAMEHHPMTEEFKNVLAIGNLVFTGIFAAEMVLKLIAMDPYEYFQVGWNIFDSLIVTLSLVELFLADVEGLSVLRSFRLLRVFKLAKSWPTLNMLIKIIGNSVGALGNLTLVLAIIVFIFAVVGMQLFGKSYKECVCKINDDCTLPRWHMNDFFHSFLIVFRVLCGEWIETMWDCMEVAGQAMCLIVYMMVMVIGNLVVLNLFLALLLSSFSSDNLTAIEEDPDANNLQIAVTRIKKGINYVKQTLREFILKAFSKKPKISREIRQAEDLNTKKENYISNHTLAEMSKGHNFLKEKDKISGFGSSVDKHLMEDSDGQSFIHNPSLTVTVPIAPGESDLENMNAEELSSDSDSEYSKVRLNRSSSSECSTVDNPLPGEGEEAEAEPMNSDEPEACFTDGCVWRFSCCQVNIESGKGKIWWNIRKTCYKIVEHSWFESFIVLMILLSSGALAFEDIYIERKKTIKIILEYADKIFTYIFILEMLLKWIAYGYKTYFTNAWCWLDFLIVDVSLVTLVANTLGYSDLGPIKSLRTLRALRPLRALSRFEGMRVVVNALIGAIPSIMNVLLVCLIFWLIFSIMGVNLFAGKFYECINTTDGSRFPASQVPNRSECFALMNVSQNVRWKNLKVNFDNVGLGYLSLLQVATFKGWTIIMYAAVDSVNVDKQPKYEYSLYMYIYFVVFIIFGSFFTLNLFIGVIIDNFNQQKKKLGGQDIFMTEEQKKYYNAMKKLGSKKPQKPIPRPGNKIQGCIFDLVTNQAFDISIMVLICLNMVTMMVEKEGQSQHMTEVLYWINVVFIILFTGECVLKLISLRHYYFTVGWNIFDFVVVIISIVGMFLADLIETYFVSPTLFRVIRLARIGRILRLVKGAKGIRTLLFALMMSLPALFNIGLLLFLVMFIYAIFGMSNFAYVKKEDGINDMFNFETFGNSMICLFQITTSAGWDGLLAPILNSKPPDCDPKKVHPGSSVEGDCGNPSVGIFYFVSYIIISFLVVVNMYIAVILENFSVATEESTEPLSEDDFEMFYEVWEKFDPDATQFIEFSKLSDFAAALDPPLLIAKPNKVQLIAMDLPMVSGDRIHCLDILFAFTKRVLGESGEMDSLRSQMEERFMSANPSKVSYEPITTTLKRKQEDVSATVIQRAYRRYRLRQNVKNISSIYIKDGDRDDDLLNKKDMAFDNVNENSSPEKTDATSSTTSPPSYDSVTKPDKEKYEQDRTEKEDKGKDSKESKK

[3] = target: human NaV1.4 (Homo sapiens, UniProt P35499); assay: PatchXpress (PX) automated electrophysiology, human NaV1.4; type: cell-based; details: for IC50: PX platform, at least ten cells, two to three data points per concentration
human NaV1.4, sequence (P35499 whole entry): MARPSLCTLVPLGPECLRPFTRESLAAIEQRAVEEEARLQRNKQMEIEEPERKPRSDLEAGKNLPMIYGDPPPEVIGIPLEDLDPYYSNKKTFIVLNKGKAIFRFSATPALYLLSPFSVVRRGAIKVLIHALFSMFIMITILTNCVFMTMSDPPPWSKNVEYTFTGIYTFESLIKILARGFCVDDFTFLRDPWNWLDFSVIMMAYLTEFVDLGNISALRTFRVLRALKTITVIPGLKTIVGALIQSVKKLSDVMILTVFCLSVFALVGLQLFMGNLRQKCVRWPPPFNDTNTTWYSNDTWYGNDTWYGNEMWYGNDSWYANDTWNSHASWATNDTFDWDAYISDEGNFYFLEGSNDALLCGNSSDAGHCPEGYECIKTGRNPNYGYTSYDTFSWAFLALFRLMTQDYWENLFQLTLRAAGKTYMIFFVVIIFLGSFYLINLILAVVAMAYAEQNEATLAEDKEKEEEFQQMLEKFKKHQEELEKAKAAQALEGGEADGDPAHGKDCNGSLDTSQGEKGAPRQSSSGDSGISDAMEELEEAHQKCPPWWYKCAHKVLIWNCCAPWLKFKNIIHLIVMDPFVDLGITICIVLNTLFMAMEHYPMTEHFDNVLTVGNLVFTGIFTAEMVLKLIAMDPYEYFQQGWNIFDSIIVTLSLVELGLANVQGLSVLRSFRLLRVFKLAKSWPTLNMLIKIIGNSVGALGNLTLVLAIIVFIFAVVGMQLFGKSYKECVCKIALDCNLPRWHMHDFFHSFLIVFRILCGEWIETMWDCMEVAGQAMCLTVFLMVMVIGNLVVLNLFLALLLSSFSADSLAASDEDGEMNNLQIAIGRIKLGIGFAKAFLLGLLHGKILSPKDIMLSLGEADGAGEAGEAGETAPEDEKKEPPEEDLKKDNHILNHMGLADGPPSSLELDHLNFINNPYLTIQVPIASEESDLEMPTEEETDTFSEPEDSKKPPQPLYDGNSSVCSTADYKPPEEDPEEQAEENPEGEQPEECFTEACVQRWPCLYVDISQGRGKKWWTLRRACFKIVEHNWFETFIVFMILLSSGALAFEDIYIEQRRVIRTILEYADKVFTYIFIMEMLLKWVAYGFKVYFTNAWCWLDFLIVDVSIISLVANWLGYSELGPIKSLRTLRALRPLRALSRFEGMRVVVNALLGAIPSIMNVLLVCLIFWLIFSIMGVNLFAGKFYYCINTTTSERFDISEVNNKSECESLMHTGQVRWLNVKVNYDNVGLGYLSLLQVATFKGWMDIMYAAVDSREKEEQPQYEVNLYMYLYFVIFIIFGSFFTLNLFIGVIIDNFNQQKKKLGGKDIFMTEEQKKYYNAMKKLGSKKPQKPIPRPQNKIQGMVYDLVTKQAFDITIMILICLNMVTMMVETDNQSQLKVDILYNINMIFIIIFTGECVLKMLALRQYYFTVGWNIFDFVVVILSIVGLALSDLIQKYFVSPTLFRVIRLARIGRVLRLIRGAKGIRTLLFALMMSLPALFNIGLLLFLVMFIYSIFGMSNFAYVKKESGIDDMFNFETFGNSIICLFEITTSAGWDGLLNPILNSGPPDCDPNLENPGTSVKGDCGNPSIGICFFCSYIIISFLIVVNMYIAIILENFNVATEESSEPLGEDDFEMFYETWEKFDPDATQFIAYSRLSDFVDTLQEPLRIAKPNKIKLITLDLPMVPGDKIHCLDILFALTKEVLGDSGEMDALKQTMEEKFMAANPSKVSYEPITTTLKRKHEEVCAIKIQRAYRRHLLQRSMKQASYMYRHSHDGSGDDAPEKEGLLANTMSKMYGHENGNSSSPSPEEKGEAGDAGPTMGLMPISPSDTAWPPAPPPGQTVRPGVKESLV
Procedure: Human NaV (hNaV) stably transfected cell lines in HEK293 or CHO backgrounds and cell culture methods were as previously described. hNaV1.1-hNaV1.7 cells were obtained from Eurofins Pharma Discovery Services (St. Charles, MO), and hNaV1.8 cells were generated in house. Whole cell patch clamp, PatchXpress, and IWQ electrophysiology voltage protocols as well as DRG neuron isolation were carried out as previously described. NaV1.7-NaV1.5 chimeras were generated and evaluated in BacMam transduced U2-OS cells on the IWQ platform as previously described.

[4] = target: T1, human NaV1.7; assay: Manual whole cell patch clamp, human NaV1.7; type: cell-based
[5] = system: TTX-R sodium channels in rat DRG neurons; details: cited from earlier work
[6] = system: TTX-S sodium channels in rat DRG neurons; details: cited from earlier work
[7] = system: capsaicin-induced action potential firing in rat DRG neurons; assay: Multi-electrode array (MEA), capsaicin-induced action potential firing in rat DRG neurons; type: cell-based; details: cultured rat DRG neurons, 25 nM capsaicin (EC80) co-applied, 37°C, six replicate wells, read-out: IC50 for block of capsaicin-induced action potential firing
Procedure: Action potentials of cultured postnatal day 2 rat DRG neurons (Lonza, Walkersville, MD) were detected using the Maestro multi-well plate-based MEA system (Axion Biosystems, Atlanta, GA). A 48-well MEA plate containing 16 electrodes/well was pre-coated with 10μL 0.1% PEI (Sigma-Aldrich, St. Louis, MO) in borate buffer (50mM boric acid (Fisher Scientific, Waltham, MA), 12mM sodium tetraborate (Sigma-Aldrich), pH 8.4). The plate was incubated at 37°C for 2h, washed 3-times with 200μL sterile ddH2O and then air dried. Next, 10μL of 20μg/mL laminin (Sigma) in Primary Neural Basal Medium (PNBM) (Lonza) was spotted over the PEI-treated electrode surface and incubated for 2h at 37°C. Laminin was removed and immediately replaced with 10μL/well of 7x10^6 cells/mL rat DRGs in PNBM. […] Baseline spontaneous firing was recorded for approximately 1 min. Twenty-five μL of PNBM, 325nM capsaicin (MP Biomedicals, 25nM final, EC80) in PNBM, or 325nM capsaicin plus test compound was then added, and action potentials were continuously recorded for another 2 min with six replicate wells used per condition. MEA data were analyzed using Axion Integrated Studio AxIS2.1 (Axion Biosystems) and GraphPad Prism version 7.02 for Windows (GraphPad Software, La Jolla, CA). […]

[8] = system: mechanically-induced C-fiber action potential firing; parameters: species or system mouse
Procedure: Male C57BL/6 mice (Charles River Laboratories, San Diego, CA) between 2–3 months old (136 total mice used in study) were housed under standard temperature conditions (22–24°C) and illumination (12-hour light/dark cycle with lights on at 6:30 AM) with ad libitum access to fresh water and food. Mice were euthanized by CO2 followed by cervical dislocation. Experimental procedures for mouse skin-saphenous nerve studies were conducted as previously described with the use of 0.1% BSA (Acros) in the bath solution to decrease non-specific loss of peptide to chamber components [32]. Briefly, the saphenous nerve and skin from the left medial dorsum of the hind paw were dissected and mounted in a custom-made organ bath chamber. The proximal saphenous nerve end was passed through a hole into a separate recording chamber, desheathed and teased into fine fibers for extracellular recording. Mechanical responses were evoked by square force waves using a mechanical stimulator before and following peptide application to a small area of the corium (dermis) side of the skin in a custom-made stainless steel ring. Recording and analysis of C-fiber-mediated action potentials were performed in a blinded manner with respect to peptide treatment. […]

[9] = system: mechanically-induced C-fiber action potential firing; details: mouse skin-nerve preparation; cited from earlier work

Q: With C#CC[C@H](N)C(=O)N[C@@H](Cc1ccc(O)cc1)C(=O)N[C@H]1CSSC[C@@H]2NC(=O)[C@@H]3CSSC[C@@H](C(=O)N[C@@H](CCCNC(=N)N)C(=O)N[C@@H](CCCCN)C(=O)N[C@H](C(=O)N[C@H](C(N)=O)[C@@H](C)CC)[C@@H](C)CC)NC(=O)[C@H](Cc4c[nH]c5ccccc45)NC(=O)[C@H](CC(C)C)NC(=O)[C@H](CCCCN)NC(=O)[C@H](CSSC[C@H](NC(=O)[C@H]([C@@H](C)O)NC(=O)[C@H](Cc4c[nH]c5ccccc45)NC(=O)[C@H](CCCC)NC(=O)[C@H](Cc4c[nH]c5ccccc45)NC(=O)[C@H](CCCCN)NC(=O)[C@H](CCC(N)=O)NC1=O)C(=O)N[C@@H](CC(=O)O)C(=O)N[C@@H](CO)C(=O)N[C@@H](CCCCN)C(=O)N[C@@H](CCCNC(=N)N)C(=O)N[C@@H](C)C(=O)N3)NC(=O)[C@H](CCCNC(=N)N)NC(=O)[C@H](CC(C)C)NC(=O)CNC(=O)[C@H](CCC(=O)O)NC2=O [Peptide 3, Pra-[Nle6]JzTx-V(1–29)] as the molecule, how does the IC50 [1] read?
A: Its IC50 is 1090 nM.

Q: What about the IC50 [2] of the same molecule?
A: Its IC50 is 1.2 nM.

Q: What about the “selectivity for NaV1.7 over NaV1.4” value ([3]; PX platform IC50 ratio) of the same molecule?
A: The value was 5 fold.

Q: And the IC50 [3]?
A: The IC50 was 6.2 nM.

Q: Which hNaV1.7 current blocked [4] does the source give for JzTx-V(1–29) [reference compound] here?
A: The hNaV1.7 current blocked was 83 ± 2% and 83 ± 6%.

Q: What about the “reversal of NaV1.7 block by high frequency strong depolarizations to +100 mV” value [4] of the same molecule?
A: Its value is “partially reversed”.

Q: What about the IC50 [5] of the same molecule?
A: The IC50 was 30 nM.

Q: What about the IC50 [6] of the same molecule?
A: The IC50 was 28 nM.

Q: Which results are given for C#CC[C@@H]1NC(=O)[C@@H]2CSSC[C@H](NC(=O)[C@H](Cc3ccc(O)cc3)NC(=O)[C@@H](N)CC#N)C(=O)N[C@@H](CCC(N)=O)C(=O)N[C@@H](CCCCN)C(=O)N[C@@H](Cc3c[nH]c4ccccc34)C(=O)N[C@@H](CCCC)C(=O)N[C@@H](Cc3c[nH]c4ccccc34)C(=O)N[C@@H]([C@@H](C)O)C(=O)N[C@H]3CSSC[C@H](NC(=O)[C@H](CCCNC(=N)N)NC(=O)[C@H](CC(C)C)NC(=O)CNC1=O)C(=O)N[C@@H](CCCCN)C(=O)N[C@@H](CC(C)C)C(=O)N[C@@H](Cc1c[nH]c4ccccc14)C(=O)N[C@H](C(=O)N[C@@H](CCCNC(=N)N)C(=O)N[C@@H](CCCCN)C(=O)N[C@@H](CCC(=O)O)C(=O)N[C@H](C(N)=O)[C@@H](C)CC)CSSC[C@H](NC(=O)[C@H](C)NC(=O)[C@H](CCCNC(=N)N)NC(=O)[C@H](CCCCN)NC(=O)[C@H](CO)NC(=O)[C@H](CC(=O)O)NC3=O)C(=O)N2 [AM-0422, CyA-[Nle6;Pra17;Glu28]JzTx-V(1–29)]?
A: IC50 [7]: 21.1 ± 5.7 nM; IC50 [1]: 966 nM; IC50 [8]: 880 nM; IC50 [3]: 103 nM

Q: Which C-fiber inhibition [9] does the source give for COc1cc(-c2cc(F)cc(Cl)c2)c(F)cc1-n1c(=O)ccc2cc(S(=O)(=O)Nc3ccon3)ccc21 [AMG8379] here?
A: Its C-fiber inhibition is 60%.
